This is an account of results in patent US9976122B2, “Methods and compositions for generating an immune response by inducing CD40 and pattern recognition receptor adapters” (BAYLOR COLLEGE OF MEDICINE, priority 2008, dated 2018).

The test system of test [1] is Naïve CD4+CD45RA+ T cells. The class given is cell-based, human. The following applies: restimulated with TTp30 at day 7.
Another test concerns human SOCS1. In words: Real time Q-PCR assay for human SOCS1 in DCs. The class given is cell-based. The following applies: stimulus by itself.
Another test has as its system human DCs. Kind of test: Cytokine ELISA (IL-12p70, IL-6) of culture supernatants of human monocyte-derived DCs. It is filed as cell-based. The following applies: LPS and CD40L-stimulated DCs. (In general: ELISA stands for enzyme-linked immunosorbent assay.)

From the text for human SOCS1: Total RNA was purified and reverse transcribed with random hexamers using SuperScript II RTase (Invitrogen, Carlsbad, Calif.). mRNA levels were quantified in DCs by subjecting cDNA to TaqMan PCR analysis using the GeneAmp 5700 Sequence Detection System (Applied Biosystems, Foster City, Calif.). Pre-developed sequence detection reagents (Applied Biosystems) specific for human SOCS1 and 18S rRNA, including forward and reverse primers as well as a fluorogenic TaqMan FAM-labeled hybridization probe, were supplied as mixtures and were used at 1 microliter/20 microliter PCR. Samples were run in duplicates. The level of SOCS1 expression in each sample was normalized to the level of 18S rRNA from the same sample using the comparative 2-delta delta CT method (Livak K J, Schmittgen T D. Analysis of relative gene expression data using real-time quantitative PCR and the 2(-Delta Delta C(T)) Method. Methods. 2001; 25:402-408).
Finally, the induction of the suppressor of cytokine signaling (SOCS1) was evaluated.

Turning to monophosphoryl lipid A [MPL], the “IFN-gamma production in CD4+ T cells” value in test [1] is “not induced”. For the molecule Lipopolysaccharide [LPS], in the test on human SOCS1, the “SOCS1 induction in DCs” value is “up-regulated”.

B1: CD40L: CD40 ligand, a TNF family member that binds to the CD40 receptor (protein)
chain: MIETYNQTSPRSAATGLPISMKIFMYLLTVFLITQMIGSALFAVYLHRRLDKIEDERNLHEDFVFMKTIQRCNTGERSLSLLNCEEIKSQFEGFVKDIMLNKEETKKENSFEMQKGDQNPQIAAHVISEASSKTTSVLQWAEKGYYTMSNNLVTLENGKQLTVKRQGLYYIYAQVTFCSNREASSQAPFIASLCLKSPGRFERILLRAANTHSSAKPCGQQSIHLGGVFELQPGASVFVNVTDPSQVSHGTGFTSFGLLKL
As for B1, the “IL-12p70 expression after removal of LPS stimulation” value with human DCs is on record as “ceased when LPS stimulation was removed”.
